“And” between values parts separate entries of the source, which are not always exact repeats. Equal values may be shown once. Toxic doses and inconclusive results are not listed. Peptide text beside a SMILES is read from it. * marks the point of attachment. Trt = c1ccc(C(c2ccccc2)(c2ccccc2)*)cc1; Cbz = O=C(OCc1ccccc1)*
Test system: BDF1 mice, B16 melanoma ip, median survival T/C
Experiment: NCI In Vivo Anticancer Drug Screen. Data for tumor model B16 Melanoma (intraperitoneal) in B6D2F1 (BDF1) mice
Details: endpoint: median survival time, higher = longer survival
Procedure, shortened: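 Vehicle-treated animals serve as the reference (C); treated animals (T) are scored for survival or tumor size after tumor transplantation.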

[1] = dose: 100.0 mg/kg/injection, schedule: Q01DX009 (ip), vehicle: saline with Tween-80
[2] = dose: 50.0 mg/kg/injection, schedule: Q01DX009 (ip), vehicle: saline with Tween-80
[3] = dose: 200.0 mg/kg/injection, schedule: Q01DX009 (ip), vehicle: saline with Tween-80
[4] = dose: 400.0 mg/kg/injection, schedule: Q01DX009 (ip), vehicle: saline with Tween-80
[5] = dose: 6.25 mg/kg/injection, schedule: Q01DX009 (ip), vehicle: saline with Tween-80
[6] = dose: 12.5 mg/kg/injection, schedule: Q01DX009 (ip), vehicle: saline with Tween-80
[7] = dose: 25.0 mg/kg/injection, schedule: Q01DX009 (ip), vehicle: saline with Tween-80
[8] = dose: 6.25 mg/kg/injection, schedule: Q01DX009 (ip), vehicle: saline
[9] = dose: 12.5 mg/kg/injection, schedule: Q01DX009 (ip), vehicle: saline
[10] = dose: 25.0 mg/kg/injection, schedule: Q01DX009 (ip), vehicle: saline
[11] = dose: 37.5 mg/kg/injection, schedule: Q04DX003 (ip), vehicle: saline
[12] = dose: 75.0 mg/kg/injection, schedule: Q01DX009 (ip), vehicle: saline with Tween-80
[13] = dose: 100.0 mg/kg/injection, schedule: Q01DX009 (ip), vehicle: Klucel (hydroxypropylcellulose) (HPC)
[14] = dose: 200.0 mg/kg/injection, schedule: Q01DX009 (ip), vehicle: Klucel (hydroxypropylcellulose) (HPC)

`COc1cc2c[n+](C)c3c(c2cc1OC)Cc1cc2c(cc1-3)OCO2` was tested, and the T/C [1] was 120 % of control.

`Cc1ccc(S(=O)(=O)N2CCC(C(=O)O)(c3ccccc3)CC2)cc1` was tested, and the T/C [2] was 113 % of control, the T/C [1] was 99 % of control and the T/C [3] was 103 % of control.

With `CC(C)[NH-].CC(C)[NH-].O.O.[Cl][Pt+2][Cl]` the T/C (dose: 3.12 mg/kg/injection, schedule: Q01DX009 (ip), vehicle: dextrose) was 118 % of control, the T/C (dose: 3.13 mg/kg/injection, schedule: Q01DX009 (ip), vehicle: dextrose) was 122 % of control and the T/C (dose: 12.5 mg/kg/injection, schedule: Q01DX009 (ip), vehicle: dextrose) was 164 % of control and 168 % of control.

For `COc1ccc(C2=C(c3ccccc3)C(c3ccccc3)=C(c3ccc(OC)cc3)C2=O)cc1`, the T/C [2] was 94 % of control, the T/C [1] was 95 % of control and the T/C [3] was 95 % of control. The T/C [4] was 94 % of control.

In the case of `Cc1ccccc1NC(=O)c1cc2ccccc2cc1O`, the T/C [1] is reported as 110 % of control, the T/C [3] is reported as 110 % of control and the T/C [4] is reported as 107 % of control.

For `COC1=CC(=O)C(OC)=C(OC)C1=O`, the T/C (dose: 3.12 mg/kg/injection, schedule: Q01DX009 (ip), vehicle: saline with Tween-80) was 98 % of control, the T/C [5] was 98 % of control and the T/C [6] was 100 % of control. The T/C [7] was 101 % of control and the T/C [2] was 93 % of control.

With `COC(C(=O)C(O)C(C)O)C1CC2C=C3C=C(OC4CC(OC5CC(O)C(OC)C(C)O5)C(OC(C)=O)C(C)O4)C(C)C(=O)C3=C(O)C2=C(O)C1OC1CC(OC2CC(OC3CC(C)(O)C(O)C(C)O3)C(O)C(C)O2)C(O)C(C)O1` (stereo not drawn) the T/C (dose: 0.25 mg/kg/injection, schedule: Q01DX009 (ip), vehicle: saline with Tween-80) was 108 % of control, the T/C (dose: 0.5 mg/kg/injection, schedule: Q01DX009 (ip), vehicle: saline with Tween-80) was 112 % of control and the T/C (dose: 1.0 mg/kg/injection, schedule: Q01DX009 (ip), vehicle: saline with Tween-80) was 110 % of control and 116 % of control. The T/C (dose: 2.6 mg/kg/injection, schedule: Q01DX009 (ip), vehicle: saline with Tween-80) was 157 % of control, the T/C (dose: 4.0 mg/kg/injection, schedule: Q01DX009 (ip), vehicle: saline with Tween-80) was 154 % of control and 167 % of control and the T/C (dose: 8.0 mg/kg/injection, schedule: Q01DX009 (ip), vehicle: saline with Tween-80) was 165 % of control.

With `O` the T/C [8] was 96 % of control, the T/C [9] was 112 % of control and the T/C (dose: 18.75 mg/kg/injection, schedule: Q04DX003 (ip), vehicle: saline) was 95 % of control. For the same molecule, the T/C [10] was 93 % of control, the T/C [11] was 97 % of control and the T/C (dose: 100.0 mg/kg/injection, schedule: Q02DX009 (ip), vehicle: saline) was 97 % of control. The T/C (dose: 200.0 mg/kg/injection, schedule: Q02DX009 (ip), vehicle: saline) was 100 % of control, the T/C (dose: 400.0 mg/kg/injection, schedule: Q02DX009 (ip), vehicle: saline) was 96 % of control and the T/C (dose: 600.0 mg/kg/injection, schedule: Q02DX009 (ip), vehicle: saline) was 103 % of control.

`CC12CC3OC(=O)C1COC14OC5(C2C1=O)C(O)(CCC1C4CC(O)C2(O)CC=CC(=O)C12C)C(=O)OC35C` (stereo not drawn) was tested, and the T/C (dose: 3.0 mg/kg/injection, schedule: Q01DX009 (ip), vehicle: Klucel (hydroxypropylcellulose) (HPC)) was 120 % of control, the T/C (dose: 6.0 mg/kg/injection, schedule: Q01DX009 (ip), vehicle: Klucel (hydroxypropylcellulose) (HPC)) was 98 % of control and 124 % of control and the T/C (dose: 12.0 mg/kg/injection, schedule: Q01DX009 (ip), vehicle: Klucel (hydroxypropylcellulose) (HPC)) was 110 % of control and 118 % of control. For the same molecule, the T/C (dose: 24.0 mg/kg/injection, schedule: Q01DX009 (ip), vehicle: Klucel (hydroxypropylcellulose) (HPC)) was 113 % of control and 120 % of control and the T/C (dose: 48.0 mg/kg/injection, schedule: Q01DX009 (ip), vehicle: Klucel (hydroxypropylcellulose) (HPC)) was 120 % of control.

With `O=C(Nc1ccccc1C(F)(F)F)c1ccc(Cl)cc1Cl` the T/C [1] was 97 % of control and the T/C [3] was 92 % of control.

With `Cc1cc2oc(=O)c3c(c2c(O)c1CN1CCOCC1)CCCC3` the T/C (dose: 64.0 mg/kg/injection, schedule: Q01DX009 (ip), vehicle: Klucel (hydroxypropylcellulose) (HPC)) was 103 % of control, the T/C (dose: 128.0 mg/kg/injection, schedule: Q01DX009 (ip), vehicle: Klucel (hydroxypropylcellulose) (HPC)) was 98 % of control and the T/C (dose: 256.0 mg/kg/injection, schedule: Q01DX009 (ip), vehicle: Klucel (hydroxypropylcellulose) (HPC)) was 108 % of control.

For `CCc1c2cc(OC)c(OC)cc2cc2c3cc(OC)c(OC)cc3cc[n+]12` (tested in a mixture with another compound), the T/C (dose: 4.8 mg/kg/injection, schedule: Q01DX009 (ip), vehicle: saline) was 98 % of control, the T/C (dose: 9.5 mg/kg/injection, schedule: Q01DX009 (ip), vehicle: saline) was 98 % of control and the T/C (dose: 19.0 mg/kg/injection, schedule: Q01DX009 (ip), vehicle: saline) was 99 % of control. For the same molecule, the T/C (dose: 37.5 mg/kg/injection, schedule: Q01DX009 (ip), vehicle: saline with Tween-80) was 117 % of control, the T/C (dose: 38.0 mg/kg/injection, schedule: Q01DX009 (ip), vehicle: saline) was 95 % of control and the T/C [12] was 108 % of control. For the same molecule, the T/C (dose: 150.0 mg/kg/injection, schedule: Q01DX009 (ip), vehicle: saline with Tween-80) was 98 % of control.

For `Cc1c(Cl)cccc1NC(=O)Oc1cc(Cl)c(Cl)cc1Cl`, the T/C (dose: 6.25 mg/kg/injection, schedule: Q01DX009 (ip), vehicle: Klucel (hydroxypropylcellulose) (HPC)) was 96 % of control, the T/C (dose: 12.5 mg/kg/injection, schedule: Q01DX009 (ip), vehicle: Klucel (hydroxypropylcellulose) (HPC)) was 98 % of control and the T/C (dose: 25.0 mg/kg/injection, schedule: Q01DX009 (ip), vehicle: Klucel (hydroxypropylcellulose) (HPC)) was 89 % of control and 98 % of control.

In the case of `Cc1ccc(CNc2cccc([N+](=O)[O-])c2)cc1`, the T/C [13] is reported as 100 % of control and the T/C [14] is reported as 97 % of control.

`CCCCCCCCCCCCCCCCCC[N+](C)(C)C` (tested in a mixture with another compound) was tested, and the T/C (dose: 0.1 mg/kg/injection, schedule: Q01DX009 (ip), vehicle: saline sonified) was 90 % of control, the T/C (dose: 2.0 mg/kg/injection, schedule: Q01DX009 (ip), vehicle: saline sonified) was 86 % of control and the T/C (dose: 4.0 mg/kg/injection, schedule: Q01DX009 (ip), vehicle: saline sonified) was 86 % of control.

`ClC1CC[N-]CC1.ClC1CC[N-]CC1.O=C(O)CC(=O)O.[Pt+2]` was tested, and the T/C [6] was 96 % of control, the T/C [7] was 95 % of control and the T/C [2] was 96 % of control. For the same molecule, the T/C [1] was 95 % of control and the T/C [3] was 104 % of control.

With `NC(=S)N/N=C/c1cc(-c2cccc(N)c2)ccn1` the T/C [5] was 104 % of control and 123 % of control and 124 % of control, the T/C [6] was 122 % of control and the T/C [9] was 166 % of control. For the same molecule, the T/C [10] was 156 % of control, the T/C [11] was 166 % of control and the T/C [12] was 124 % of control. For the same molecule, the T/C (dose: 75.0 mg/kg/injection, schedule: Q04DX003 (ip), vehicle: saline) was 156 % of control and the T/C (dose: 150.0 mg/kg/injection, schedule: Q04DX003 (ip), vehicle: saline) was 150 % of control.

For `COc1ccc([Se][Se]c2ccc(OC)cc2NC(C)=O)c(NC(C)=O)c1`, the T/C [2] was 102 % of control, the T/C [1] was 92 % of control and the T/C [3] was 100 % of control.

For `CN(C)CC(C)(C)CN1c2ccccc2Sc2ccccc21`, the T/C [8] was 117 % of control, the T/C [9] was 105 % of control and the T/C [10] was 105 % of control.

With `CC(=N\O)/C(C)=N/O.CC(=N\O)/C(C)=N/O.CC(=N\O)/C(C)=N/O.CC(=N\O)/C(C)=N/O.[Cu].[Cu]` the T/C (dose: 0.78 mg/kg/injection, schedule: Q01DX009 (ip), vehicle: Klucel (hydroxypropylcellulose) (HPC)) was 93 % of control, the T/C (dose: 1.56 mg/kg/injection, schedule: Q01DX009 (ip), vehicle: Klucel (hydroxypropylcellulose) (HPC)) was 103 % of control and the T/C (dose: 3.13 mg/kg/injection, schedule: Q01DX009 (ip), vehicle: Klucel (hydroxypropylcellulose) (HPC)) was 103 % of control.

In the case of `COC(=O)C(CSC(c1ccccc1)(c1ccccc1)c1ccccc1)NC(=O)C(CC(N)=O)NC(=O)OCc1ccccc1` (stereo not drawn) (Cbz-Asn-Cys(Trt)-OMe; configuration not given here), the T/C (dose: 12.5 mg/kg/injection, schedule: Q01DX009 (ip), vehicle: distilled water + Tween-80) is reported as 108 % of control and 110 % of control, the T/C (dose: 25.0 mg/kg/injection, schedule: Q01DX009 (ip), vehicle: distilled water + Tween-80) is reported as 102 % of control and 117 % of control and the T/C (dose: 50.0 mg/kg/injection, schedule: Q01DX009 (ip), vehicle: distilled water + Tween-80) is reported as 109 % of control. The T/C (dose: 100.0 mg/kg/injection, schedule: Q01DX009 (ip), vehicle: distilled water + Tween-80) was 113 % of control and the T/C (dose: 200.0 mg/kg/injection, schedule: Q01DX009 (ip), vehicle: distilled water + Tween-80) was 116 % of control.

In the case of `CSc1ccc(N=Cc2ccc3c(c2)OCO3)cc1`, the T/C [13] is reported as 90 % of control and the T/C [14] is reported as 88 % of control.
